Assay results published in patent US20090306093A1, “METHOD FOR TREATING PATIENT HAVING BENIGN PROSTATE HYPERPLASIA” (KAOHSIUNG MEDICAL UNIVERSITY, priority 2008, published 2009).

Tests used:
PKG = test: Western blot of PKG expression in rat prostate
Experimental: (§1) Prostate strips were incubated with KMUP-1 (10-100 μM), sildenafil (100 μM) and zaprinast (100 μM) in 10 mL Tyrode solution aerated with 95% O2 and 5% CO2 for 1 hour. To examine the possible mechanisms of KMUP-1 action, the rat prostate were pretreated with ODQ (10 μM), SQ22536 (10 μM) and RP-8pCPT-cGMPs (10 μM) for 30 minutes prior to the addition of KMUP-1 (100 μM).
In order to examine the expression of Rho kinase in prostate, the prostate strips were pre-incubated with phenylephrine (10 μM) for 30 minutes. After a pre-treatment of phenylephrine, KMUP-1 (10-100 μM) and Y-27632 (10 μM) were further incubated for 30 minutes. After the incubation time, the prostate were extracted with protein extraction reagent (Pierce Biotechnology, Inc., Rockford, Ill., USA.). The PZ-HPV-7 cells were incubated with and without KMUP-1 (0.1-10 μM) at 30 minutes, 8 and 24 hours. They were then washed rapidly with ice-cold PBS, incubated with protein extraction reagent, and scraped from the plates. The prostate tissues and cells were sonicated three times for 10 second each time and centrifuged at 13,000 rpm at 4° C. for 30 minutes. The protein concentrations of supernatants were determined, using bovine serum albumin as the standard. Tissue and cell extract protein were then boiled at a ratio of 4:1 with sample buffer (100 mM Tris, pH 6.8, 20% glycerol, 4% SDS, and 0.2% bromphenol blue). 40-60 μg protein was used in this experiment. Electrophoresis was performed using 10 or 12% SDS-polyacrylamide gel electrophoresis and then transferred to nitrocellulose membranes (Millipore Corporation, Billerica, Mass.). The membrane was blocked with Tris-buffered saline (20 mM Tris and 137 mM NaCl, pH 7.6) containing 0.1% Tween 20 (TTBS) and 5% non-fat milk at room temperature for 1 hour, washed with TTBS, and then incubated overnight at 4° C. in the appropriate primary antibody of PKG (Santa Cruz, 1:200), sGCa1 (Santa Cruz, 1:200), PKA (Abcam, 1:1000), ROCK2 (Upstate, 1:1000), and PDE5A (BD Biosciences, 1:1000), p21 (Upstate, 1:1000). The membranes were washed in TTBS before being incubated with horseradish peroxidase-conjugated antibody against mouse, goat, or rabbit IgG (Santa Cruz, 1:1000) for 1 hour. The membrane was then washed in TTBS and developed with the enhanced chemiluminescence (ECL) for the detection of the specific antigen. The intensity of the bands was measured by densitometry.

PDE5A = test: Western blot of PDE5A expression in rat prostate; conditions: KMUP-1 10-100 μM
Experimental: as §1
In order to examine the expression of Rho kinase in prostate, the prostate strips were pre-incubated with phenylephrine (10 μM) for 30 minutes. After a pre-treatment of phenylephrine, KMUP-1 (10-100 μM) and Y-27632 (10 μM) were further incubated for 30 minutes. After the incubation time, the prostate were extracted with protein extraction reagent (Pierce Biotechnology, Inc., Rockford, Ill., USA.). The PZ-HPV-7 cells were incubated with and without KMUP-1 (0.1-10 μM) at 30 minutes, 8 and 24 hours. They were then washed rapidly with ice-cold PBS, incubated with protein extraction reagent, and scraped from the plates. The prostate tissues and cells were sonicated three times for 10 second each time and centrifuged at 13,000 rpm at 4° C. for 30 minutes. The protein concentrations of supernatants were determined, using bovine serum albumin as the standard. […] The intensity of the bands was measured by densitometry.

cGMP = test: Determination of cGMP in rat isolated prostate (radioimmunoassay); conditions: for cGMP levels: 1 hour
Experimental: (§2) Isolated prostate strips from Wistar rats were prepared to determine prostate levels of cGMP and cAMP. Briefly, prostate strips were respectively incubated with KMUP-1 (10-100 μM), sildenafil (100 μM), and zaprinast (100 μM) in 10 mL Tyrode solution aerated with 95% O2 and 5% CO2 for 1 hour. To examine the possible mechanisms of action of KMUP-1, the rat prostate was pretreated with ODQ (10 μM, sGC inhibitor) and SQ22536 (9-(tetrahydro-2-furanyl)-9H-purin-6-amine, 10 μM, adenylyl cyclase inhibitor) for 30 minutes before KMUP-1 was added. After the incubation, the prostate tissues were extracted with 1 mL of 0.1 N HCl. The extracts were then lyophilized for a further measurement of cyclic GMP or cyclic AMP of each sample, using commercially available radioimmunoassay kits (Amersham Pharmacia Biotech, Buckinghamshire, England).

a1-adrenoceptor = test: Antagonism of phenylephrine-induced contraction in isolated rat prostate strips; conditions: against phenylephrine, KMUP-1 0.01-1 μM
Experimental: Smooth muscle contractility of isolated Wistar rat prostate was used to evaluate the possible involvement of a1-adrenoceptor antagonism by KMUP-1. KMUP-1 (0.01-1 μM) or vehicle was added to organ bath, containing the Tyrode solution, for 30 minutes after a concentration-response curve to phenylephrine (0.001-100 μM) was obtained.
Concentration-response curves of phenylephrine were dose-dependently parallel-shifted to the right by KMUP-1.

cAMP = test: Determination of cAMP in rat isolated prostate (radioimmunoassay); conditions: for cAMP levels: 1 hour
Experimental: as §2

In the case of `Cn1c(=O)c2c(ncn2CCN2CCN(c3ccccc3Cl)CC2)n(C)c1=O` [KMUP-1, 7-[2-[4-(2-Chlorobenzene)piperazinyl]ethyl]-1,3-dimethyl xanthine], the “expression of PKG” value (PKG; KMUP-1 100 μM after pretreatment of RP-8-pCPT-cGMPs 10 μM for 30 minutes) is reported as “significantly reduce”, the “expression of PKG” value (PKG; KMUP-1 10, 100 μM, sildenafil, zaprinast 100 μM) is reported as “significantly induce” and the “expression of PDE5A” value (PDE5A) is reported as “mildly inhibits”. For the same compound, the cGMP levels (cGMP; 10 μM) was 3.50±0.58 pmol mg^−1 protein, the cGMP levels (cGMP; 100 μM) was 7.50±0.79 pmol mg^−1 protein and the “accumulation of cGMP” value (cGMP; KMUP-1 100 μM in the presence of ODQ 10 μM) was 2.54±0.73 pmol mg^−1 protein. The “apparent pA2” value (a1-adrenoceptor) was 7.82±0.33, the cAMP levels (cAMP; 10 μM) was 1.74±0.51 pmol mg^−1 protein and the cAMP levels (cAMP; 100 μM) was 2.82±0.42 pmol mg^−1 protein. The “accumulation of cAMP” value (cAMP; KMUP-1 100 μM in the presence of SQ22536 10 μM) was 2.16±0.79 pmol mg^−1 protein.
